Consider twelve compounds from patent US20260274814A1, “THIENYL COMPOUNDS FOR THE TREATMENT OF A CENTRAL NERVOUS SYSTEM DISEASE OR DISORDER” (Coreterra Therapeutics, Inc., priority 2023, published 2026).

SMILES strings stand for the structures. Structures can show the parent of a compound that is named as a salt. Where two headings read alike, the source gives them in different places.

This assay has as its system mice. Kind of assay: Neuropharmacological Assay (SmartCube): automated behavioral signature of compound-treated mice compared with a database of reference drug classes. In kind it is in vivo. To be noted: for AD / AG / AN / AP / AX / CE / HL / MS / PS / SH / UK: 3.0 mg/kg i.p., 15 min before test; for MED / minimal effective dose / MED (minimal effective dose): i.p., that dose is shown; for minimal effective dose: Mus musculus, ip. In outline:
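Probabilities of matching each neuropharmacological class (e.g. anxiolytic, antidepressant) come from algorithmic analysis of digitally recorded behaviour, reported for 3.0 mg/kg. Compounds were given intraperitoneally in a Pharmasolve/PEG/propylene glycol vehicle 15 min pre-test. Minimal effective dose is the lowest dose reaching 45% or more total activity.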

Where [1] appears, read: minimal effective dose: dose having 45% or more total activity in SmartCube, if only one dose tested.
[2] abbreviates: minimal effective dose: dose having 45% or more total activity in SmartCube, if only one dose tested, read-out: MED.
Where [3] appears, read: SmartCube class probability, hydrochloride, 3 mg/kg.
Setting [4] is: dose having 45% or more total activity in SmartCube, if only one dose was tested, hydrochloride.
[5] abbreviates: probability that activity matches this class of agents.
[6] abbreviates: probability that activity matches this class of agents, hydrochloride, 3 mg/kg.
[7] abbreviates: SmartCube class probability, 3 mg/kg.
Setting [8] is: dose having 45% or more total activity in SmartCube, if only one dose was tested, read-out: MED (minimal effective dose).
[9] abbreviates: probability that activity matches this class of agents, 3 mg/kg.

`CNC1CCc2scc(CN)c2C1` (single isomer, unassigned) [Compound 237, 3-(aminomethyl)-N-methyl-4,5,6,7-tetrahydrobenzothiophen-5-amine dihydrochloride]: under “SmartCube class probability”, the AD result is “ND (^ <4%)”, the AG result is recorded as “ND (^ <4%)”, the AN result is reported as “ND (^ <4%)” and the AP result was “ND (^ <4%)”. Under “SmartCube class probability”, the AX result is reported as “ND (^ <4%)”, the CE result was “ND (^ <4%)”, the HL result is listed as “ND (^ <4%)” and the MS result is “ND (^ <4%)”. In addition, for the setting “SmartCube class probability”, the PS result is “ND (^ <4%)” and the SH result is recorded as “ND (^ <4%)”. In addition, the UK result (SmartCube class probability, dihydrochloride, 3 mg/kg) was “+ (≥4%)”. The compound also came in with an MED under setting [1] greater than 3 mpk.

Take `CNC1CCc2cc(Cl)sc2C1` (single isomer, unassigned) [Compound 145, 2-chloro-N-methyl-4,5,6,7-tetrahydrobenzothiophen-6-amine hydrochloride]: under setting [2], the minimal effective dose was 3 mg/kg. For the same compound, under “SmartCube class probability”, the AG entry is reported as “ND (^ <4%)”, the AN entry is on record as “ND (^ <4%)”, the AP entry is on record as “ND (^ <4%)” and the AX entry is recorded as “ND (^ <4%)”. For the same compound, under “SmartCube class probability”, the CE entry is reported as “ND (^ <4%)”, the HL result is “ND (^ <4%)”, the MS result is reported as “ND (^ <4%)” and the PS result is listed as “ND (^ <4%)”. Further, the SH entry (SmartCube class probability) is listed as “ND (^ <4%)”. In addition, under setting [3], the AD entry is given as “++++ (≥74%)” and the UK result is “ND (^ <4%)”.

In the case of `CNC1CCCc2ccsc2C1.Cl` (single isomer, unassigned) [Compound 26, N-methyl-5,6,7,8-tetrahydro-4H-cyclohepta[b]thiophen-7-amine hydrochloride], the “MED (minimal effective dose)” value under setting [4] was 3.0 mpk. Also, under setting [5], the AD result is given as “ND (^ <4%)”, the AG entry was “ND (^ <4%)”, the AN result is “ND (^ <4%)” and the AX entry is listed as “ND (^ <4%)”. Besides, under setting [5], the HL result was “ND (^ <4%)”, the MS result was “ND (^ <4%)” and the PS entry is “ND (^ <4%)”. Also, under setting [6], the AP result is on record as “ND (^ <4%)”, the CE entry is “+ (≥4%)”, the SH entry was “+ (≥4%)” and the UK entry was “++ (≥24%)”.

With `CNC1(C)COc2c(C)csc2C1.Cl` (stereo not drawn) [Compound 239, N, 3,6-trimethyl-6,7-dihydro-5H-thieno[3,2-b]pyran-6-amine hydroachloride], where the note is “SmartCube class probability”, the AG result is listed as “ND (^ <4%)”, the AN result is reported as “ND (^ <4%)”, the AP entry was “ND (^ <4%)” and the AX entry was “ND (^ <4%)”. For the same compound, for the setting “SmartCube class probability”, the CE result is “ND (^ <4%)”, the HL entry is “ND (^ <4%)”, the MS entry is on record as “ND (^ <4%)” and the PS entry is reported as “ND (^ <4%)”. For the same compound, the SH result (SmartCube class probability) was “ND (^ <4%)”. In addition, under setting [7], the AD result was “ND (^ <4%)” and the UK result was “++ (≥24%)”. Under setting [1], this compound showed an MED greater than 3 mpk.

Consider `CNC1COc2cscc2C1` (single isomer, unassigned) [Compound 52, N-methyl-3,4-dihydro-2H-thieno[3,4-b]pyran-3-amine hydrochloride], for which, under setting [4], the “MED (minimal effective dose)” value is given as 3.0 mpk. Under setting [5], the AD result is “ND (^ <4%)”, the AG result is given as “ND (^ <4%)”, the AN entry is “ND (^ <4%)” and the CE result is given as “ND (^ <4%)”. Under setting [5], the HL result is “ND (^ <4%)”, the MS result is “ND (^ <4%)”, the PS entry is “ND (^ <4%)” and the SH result is listed as “ND (^ <4%)”. For the same compound, the UK result under setting [5] is “+ (≥4%)”. Moreover, under setting [6], the AP entry is recorded as “+++ (≥49%)” and the AX entry is recorded as “++ (≥24%)”.

As to `CN(C)C1CCc2csc(C(F)(F)F)c2C1` (single isomer, unassigned) [Compound 120, N,N-dimethyl-3-(trifluoromethyl)-4,5,6,7-tetrahydro-2-benzothiophen-5-amine hydrochloride], under setting [8], the minimal effective dose turned out to be 3 mg/kg. Besides, under setting [5], the AD entry is “ND (^ <4%)”, the AG entry was “ND (^ <4%)”, the AN entry is “ND (^ <4%)” and the AP result is on record as “++++ (≥74%)”. Further, under setting [5], the AX entry is given as “ND (^ <4%)”, the CE result is on record as “ND (^ <4%)”, the HL entry is “ND (^ <4%)” and the MS entry was “ND (^ <4%)”. Also, under setting [5], the PS entry was “ND (^ <4%)”, the SH entry is “ND (^ <4%)” and the UK entry is given as “ND (^ <4%)”.

Turning to `CNC1CCc2sc(F)cc2C1` (single isomer, unassigned; enantiomer 2) [Compound 99, 2-fluoro-N-methyl-4,5,6,7-tetrahydrobenzothiophen-5-amine hydrochloride enantiomer 2], where the note is “dose having 45% or more total activity in SmartCube, if only one dose was tested”, the “MED (minimal effective dose)” value was 3 mpk. Moreover, under setting [5], the AD result is reported as “ND (^ <4%)”, the AG result is “ND (^ <4%)”, the AN entry is listed as “ND (^ <4%)” and the CE result is “ND (^ <4%)”. Besides, under setting [5], the HL entry was “ND (^ <4%)”, the MS result is listed as “ND (^ <4%)”, the PS entry is “ND (^ <4%)” and the SH entry was “ND (^ <4%)”. Further, under setting [9], the AP result is “ND (^ <4%)”, the AX entry is listed as “ND (^ <4%)” and the UK result is listed as “+++ (≥49%)”.

As for `CNC1CCc2c(F)sc(F)c2C1` (single isomer, unassigned) [Compound 77, 1,3-difluoro-N-methyl-4,5,6,7-tetrahydro-2-benzothiophen-5-amine hydrochloride], the “MED (minimal effective dose)” value under setting [4] stood at 0.3 mpk. For the same compound, under setting [5], the AG result was “ND (^ <4%)”, the AN result is “ND (^ <4%)”, the AP entry is listed as “++ (≥24%)” and the CE entry is “ND (^ <4%)”. Under setting [5], the HL result is “ND (^ <4%)”, the MS result is reported as “ND (^ <4%)”, the PS result is “ND (^ <4%)” and the SH entry is given as “ND (^ <4%)”. For the same compound, under setting [6], the AD entry was “++ (≥24%)”, the AX entry was “+ (≥4%)” and the UK result is reported as “ND (^ <4%)”.

Take `NC1COc2ccsc2C1` (single isomer, unassigned) [Compound 135, 6,7-dihydro-5H-thieno[3,2-b]pyran-6-amine hydrochloride]: the minimal effective dose under setting [8] was found to be 3 mg/kg. Moreover, under setting [5], the AD entry is on record as “ND (^ <4%)”, the AG entry is listed as “ND (^ <4%)”, the AN result is listed as “ND (^ <4%)” and the AX entry is reported as “ND (^ <4%)”. Moreover, under setting [5], the CE result was “ND (^ <4%)”, the HL result is given as “ND (^ <4%)”, the MS result was “ND (^ <4%)” and the PS result was “ND (^ <4%)”. Under setting [6], the AP result is reported as “+ (≥4%)”, the SH entry is listed as “++ (≥24%)” and the UK entry is on record as “ND (^ <4%)”.

For the compound `N#Cc1csc2c1CC(N)CC2` (single isomer, unassigned) [Compound 177, 5-amino-4,5,6,7-tetrahydrobenzo[b]thiophene-3-carbonitrile hydrochloride], for the setting “SmartCube class probability”, the AD result is “ND (^ <4%)”, the AG result is recorded as “ND (^ <4%)”, the AN entry is listed as “ND (^ <4%)” and the AP entry is listed as “ND (^ <4%)”. Moreover, under “SmartCube class probability”, the AX entry is given as “ND (^ <4%)”, the CE result is “ND (^ <4%)”, the HL entry was “ND (^ <4%)” and the MS result is listed as “ND (^ <4%)”. Under “SmartCube class probability”, the PS entry is recorded as “ND (^ <4%)” and the SH entry is recorded as “ND (^ <4%)”. The UK entry under setting [3] was “++++ (≥74%)”. Under “minimal effective dose: dose having 45% or more total activity in SmartCube, if only one dose tested, hydrochloride”, this compound had an MED of 3 mpk.

As to `CNC1(C)COc2c(C)csc2C1` (racemic) [Compound 238, N, 3,6-trimethyl-6,7-dihydro-5H-thieno[3,2-b]pyran-6-amine hydrochloride], under setting [2], the minimal effective dose is greater than 3 mg/kg. For the same compound, for the setting “SmartCube class probability”, the AD result is “ND (^ <4%)”, the AG entry is given as “ND (^ <4%)”, the AN entry is “ND (^ <4%)” and the AP entry is on record as “ND (^ <4%)”. For the setting “SmartCube class probability”, the AX result is “ND (^ <4%)”, the CE result was “ND (^ <4%)”, the HL result was “ND (^ <4%)” and the MS result is on record as “ND (^ <4%)”. Moreover, where the note is “SmartCube class probability”, the PS entry is “ND (^ <4%)”, the SH result was “ND (^ <4%)” and the UK entry was “++ (≥24%)”.

With `CNC1CCc2scc(C(F)(F)F)c2C1.Cl` (single isomer, unassigned) [Compound 194, N-methyl-3-(trifluoromethyl)-4,5,6,7-tetrahydrobenzothiophen-5-amine hydrochloride], the minimal effective dose under setting [2] was 3 mg/kg. Also, where the note is “SmartCube class probability”, the AD entry is listed as “ND (^ <4%)”, the AG result is on record as “ND (^ <4%)”, the AN entry is “ND (^ <4%)” and the AX entry is “ND (^ <4%)”. Besides, under “SmartCube class probability”, the CE result is “ND (^ <4%)”, the HL result is recorded as “ND (^ <4%)”, the MS result is “ND (^ <4%)” and the PS result is listed as “ND (^ <4%)”. Moreover, the SH result (SmartCube class probability) is given as “ND (^ <4%)”. Under setting [3], the AP result is listed as “++++ (≥74%)” and the UK entry is “ND (^ <4%)”.
